The values below are quoted from earlier work in article PMC2803440 (Current Chemical Genomics, 2008).

pKi: −log10 of the molar value.

The target of this data set is recombinant variant of PON1.

Consider `Oc1ccc2ccccc2n1` [Compound 2HQ, 2-hydroxyquinoline], for which the pKi was 5.52.
